Measured values reported in PubChem BioAssay AID977614 (Broad Institute, 2014).
Calls of active or inactive are those of the source.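 The calls were made as follows: active = parasite count per well reduced by over 3 SD from the mean, with host cell number above 80% of untreated; inactive = the rest.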

Test system: L. donovani amastigotes in THP-1 macrophages, DAPI imaging, 72 h
Assay: antileishmanial activity in infected macrophages – imaging, THP-1 host macrophages, single concentration (AID 977614);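 also: signal is the parasite per host cell ratio from DAPI stained kinetoplasts and nuclei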

Row | Compound | AC50
1 | CCN(C[C@H]1[C@H](c2ccccc2)[C@@H](CO)N1C(=O)COC)S(C)(=O)=O | > 10 µM (inactive)
2 | O=S(=O)(NC[C@@H]1[C@H](c2ccccc2)[C@H](CO)N1CC1CC1)c1ccccc1 | > 10 µM (inactive)
3 | O=S(=O)(NC[C@H]1[C@@H](c2ccccc2)[C@H](CO)N1CC1CC1)c1ccccc1 | > 10 µM (inactive)
4 | C/C=C/c1ccc([C@@H]2[C@H](CO)N[C@H]2CNS(=O)(=O)c2ccccc2)cc1 | > 10 µM (inactive)
5 | O=C(C1CCCCC1)N1[C@H](CO)[C@H]2c3ccccc3NC[C@H]21 | > 10 µM (inactive)
6 | C/C=C/c1ccc([C@H]2[C@@H](CO)N[C@@H]2CN(CC)C(=O)CN2CCOCC2)cc1 | > 10 µM (inactive)
7 | CC(=O)N1[C@@H]2CN(S(=O)(=O)c3ccccc3C)c3ccccc3[C@@H]2[C@@H]1CO | > 10 µM (inactive)
8 | O=C(c1ccncc1)N1C[C@H]2[C@@H](c3ccccc31)[C@@H](CO)N2Cc1ccccc1F | > 10 µM (inactive)
9 | COCC(=O)N(C[C@@H]1[C@@H](c2ccccc2)[C@H](CO)N1C(=O)NC(C)C)C(C)C | > 10 µM (inactive)
10 | COc1ccc(NC(=O)N(C)C[C@H]2OCc3cnnn3CCCC(=O)N([C@@H](C)CO)C[C@H]2C)c(OC)c1 | > 10 µM (inactive)
11 | CCCN1[C@H](CO)[C@H](c2ccc(C#CC(C)C)cc2)[C@@H]1CN(C)S(C)(=O)=O | > 10 µM (inactive)
12 | CCN(C[C@H]1[C@H](c2ccccc2)[C@@H](CO)N1CC1CC1)C(=O)c1ccccn1 | > 10 µM (inactive)
13 | CCC(=O)N1C[C@H]2[C@@H](c3ccccc31)[C@@H](CO)N2Cc1ccc(F)cc1 | > 10 µM (inactive)
14 | O=C(CN1CCOCC1)N1[C@@H](CO)[C@@H]2c3ccccc3NC[C@@H]21 | > 10 µM (inactive)
15 | COc1ccc(CN(C)C[C@H]2OCc3cnnn3CCCC(=O)N([C@@H](C)CO)C[C@@H]2C)cc1 | > 10 µM (inactive)
16 | C[C@H]1CN([C@@H](C)CO)C(=O)CCCn2nncc2CO[C@H]1CN(C)C(=O)c1cc(-c2ccccc2)on1 | > 10 µM (inactive)
17 | COc1ccccc1NC(=O)N1C[C@H]2[C@@H](c3ccccc31)[C@H](CO)N2CC1CCOCC1 | > 10 µM (inactive)
18 | C[C@H]1CN([C@@H](C)CO)C(=O)CCCn2cc(nn2)CO[C@H]1CN(C)C(=O)NC1CCCCC1 | > 10 µM (inactive)
19 | CNC[C@H]1OCc2cn(nn2)CCCC(=O)N([C@@H](C)CO)C[C@H]1C | > 10 µM (inactive)
20 | C/C=C/c1ccc([C@H]2[C@@H](CNC(C)C)N(C(=O)c3ccccn3)[C@H]2CO)cc1 | > 10 µM (inactive)
21 | C[C@H](CO)N1C[C@H](C)[C@@H](CN(C)C(=O)c2ccc3ccn(C)c3c2)OCc2cnnn2CCCC1=O | > 10 µM (inactive)
22 | COCC(=O)N(C[C@H]1N[C@H](CO)[C@@H]1c1ccc(C2=CCCC2)cc1)C1CCCC1 | > 10 µM (inactive)
23 | C[C@H](CO)N1C[C@H](C)[C@H](CN(C)S(=O)(=O)c2ccccc2C#N)OCc2cnnn2CCCC1=O | > 10 µM (inactive)
24 | CC(=O)N1[C@@H](CO)[C@@H](c2ccccc2)[C@@H]1CN(CC1CCC1)C(=O)CN(C)C | > 10 µM (inactive)
25 | CC(C)N(C[C@H]1[C@@H](c2ccccc2)[C@@H](CO)N1CC1CC1)C(=O)C1CCC1 | > 10 µM (inactive)
26 | COCC(=O)N1[C@@H]2CN(C(=O)c3cccnc3)c3ccccc3[C@@H]2[C@@H]1CO | > 10 µM (inactive)

Row | Compound | AC50
27 | CC(C)NC(=O)N1[C@@H](CO)[C@H](c2ccccc2)[C@@H]1CN(C)C(=O)c1cccnc1 | > 10 µM (inactive)
28 | CC(=O)N1[C@H](CO)[C@@H](c2ccc(C3=CCCCC3)cc2)[C@@H]1CNC(=O)CN(C)C | > 10 µM (inactive)
29 | OC[C@@H]1[C@H]2c3ccccc3NC[C@H]2N1Cc1cccnc1 | > 10 µM (inactive)
30 | CCCNC(=O)N1C[C@H]2[C@@H](c3ccccc31)[C@@H](CO)N2C(=O)Nc1ccccc1F | > 10 µM (inactive)
31 | COc1ccc(NC(=O)N(C)C[C@@H]2OCc3cnnn3CCCC(=O)N([C@H](C)CO)C[C@H]2C)c(OC)c1 | > 10 µM (inactive)
32 | CNC[C@@H]1OCc2cn(nn2)CCCC(=O)N([C@H](C)CO)C[C@H]1C | > 10 µM (inactive)
33 | C/C=C/c1ccc([C@H]2[C@@H](CO)N[C@@H]2CN(CC(C)C)C(=O)c2ccccn2)cc1 | > 10 µM (inactive)
34 | C[C@H]1CN([C@@H](C)CO)C(=O)CCCn2cc(nn2)CO[C@H]1CN(C)Cc1ccccc1 | > 10 µM (inactive)
35 | COc1ccc(CN(C)C[C@@H]2OCc3cnnn3CCCC(=O)N([C@@H](C)CO)C[C@@H]2C)cc1 | > 10 µM (inactive)
36 | Cc1noc(C)c1S(=O)(=O)N(C)C[C@H]1OCc2cn(nn2)CCCC(=O)N([C@@H](C)CO)C[C@@H]1C | > 10 µM (inactive)
37 | CCC(=O)N1[C@H](CO)[C@H]2c3ccccc3N(C(=O)c3cnccn3)C[C@H]21 | > 10 µM (inactive)
38 | C[C@H](CO)N1C[C@H](C)[C@H](CN(C)C(=O)c2ccc3ccn(C)c3c2)OCc2cnnn2CCCC1=O | > 10 µM (inactive)
39 | C[C@H](CO)N1C[C@H](C)[C@@H](CN(C)C(=O)CCC(F)(F)F)OCc2cn(nn2)CCCC1=O | > 10 µM (inactive)
40 | C/C=C/c1ccc([C@H]2[C@@H](CNC(=O)CC3CC3)N(C(=O)CC)[C@H]2CO)cc1 | > 10 µM (inactive)
41 | CCC(=O)NC[C@@H]1[C@@H](c2ccc(-c3cccc(F)c3)cc2)[C@@H](CO)N1CC1CC1 | > 10 µM (inactive)
42 | OC[C@H]1N[C@@H](CNCC2CCC2)[C@@H]1c1ccc(C2=CCCCC2)cc1 | > 10 µM (inactive)
43 | C[C@H](CO)N1C[C@H](C)[C@H](CN(C)C(=O)Nc2ccnc(N3CCOCC3)c2)OCc2cnnn2CCCC1=O | > 10 µM (inactive)
44 | O=C(NC[C@H]1[C@H](c2ccccc2)[C@H](CO)N1C(=O)Cc1ccncc1)C1CCC1 | > 10 µM (inactive)
45 | C[C@H]1CN([C@@H](C)CO)C(=O)CCCn2nncc2CO[C@@H]1CN(C)C(=O)CCC(F)(F)F | > 10 µM (inactive)
46 | C[C@@H]1CN([C@H](C)CO)C(=O)CCCn2nncc2CO[C@@H]1CN(C)Cc1cccc2c1OCCCO2 | > 10 µM (inactive)
47 | COc1ccccc1C(=O)N1C[C@@H]2[C@H](c3ccccc31)[C@H](CO)N2CC1CCCC1 | > 10 µM (inactive)
48 | COCC(=O)N(C)C[C@H]1[C@H](c2ccccc2)[C@@H](CO)N1C(=O)Cc1ccncc1 | > 10 µM (inactive)
49 | O=C(c1ccccc1F)N1C[C@H]2[C@@H](c3ccccc31)[C@@H](CO)N2Cc1ccc2c(c1)OCO2 | > 10 µM (inactive)
50 | O=C(C1CCCCC1)N1[C@@H](CO)[C@@H]2c3ccccc3NC[C@@H]21 | > 10 µM (inactive)
51 | C[C@@H]1CN([C@H](C)CO)C(=O)CCCn2nncc2CO[C@H]1CN(C)Cc1ccc(C(=O)Nc2ccccc2N)cc1 | > 10 µM (inactive)
52 | O=C(C1CCC1)N1C[C@@H]2[C@H](c3ccccc31)[C@@H](CO)N2C(=O)Nc1cccc(F)c1 | > 10 µM (inactive)

Row | Compound | AC50
53 | COc1ccc(NC(=O)N2C[C@H]3[C@@H](c4ccccc42)[C@@H](CO)N3Cc2ccccn2)cc1 | > 10 µM (inactive)
54 | O=C(C1CCCCC1)N1[C@@H]2CNc3ccccc3[C@@H]2[C@@H]1CO | > 10 µM (inactive)
55 | CN1C[C@@H]2[C@H](c3ccccc31)[C@@H](CO)N2Cc1ccccc1Cl | > 10 µM (inactive)
56 | C/C=C/c1ccc([C@@H]2[C@@H](CN(C)C(=O)CC3CC3)N(C(=O)C3CC3)[C@H]2CO)cc1 | > 10 µM (inactive)
57 | COc1ccc(NC(=O)N(C)C[C@H]2OCc3cnnn3CCCC(=O)N([C@H](C)CO)C[C@H]2C)c(OC)c1 | > 10 µM (inactive)
58 | C[C@H]1CN([C@@H](C)CO)C(=O)CCCn2nncc2CO[C@@H]1CN(C)C(=O)Nc1cccc(Oc2ccccn2)c1 | > 10 µM (inactive)
59 | C/C=C/c1ccc([C@H]2[C@@H](CO)N(C(=O)CC)[C@@H]2CN(C(=O)C2CC2)C(C)C)cc1 | > 10 µM (inactive)
60 | C[C@@H]1CN([C@H](C)CO)C(=O)CCCn2cc(nn2)CO[C@H]1CN(C)C(=O)c1ccc(N2CCN(C)CC2)cc1 | > 10 µM (inactive)
61 | CCN(C[C@H]1[C@H](c2ccc(C3=CCCCC3)cc2)[C@H](CO)N1CC1CC1)C(C)=O | > 10 µM (inactive)
62 | COc1ccccc1S(=O)(=O)N(C)C[C@H]1OCc2cn(nn2)CCCC(=O)N([C@@H](C)CO)C[C@@H]1C | > 10 µM (inactive)
63 | CCN(C[C@@H]1[C@@H](c2ccc(-c3cccnc3)cc2)[C@@H](CO)N1C(C)=O)C(C)=O | > 10 µM (inactive)
64 | Cc1noc(C)c1S(=O)(=O)N(C)C[C@@H]1OCc2cnnn2CCCC(=O)N([C@@H](C)CO)C[C@H]1C | > 10 µM (inactive)
65 | Cc1noc(C)c1S(=O)(=O)N(C)C[C@H]1OCc2cn(nn2)CCCC(=O)N([C@@H](C)CO)C[C@H]1C | > 10 µM (inactive)
66 | O=C(CC(F)(F)F)N1C[C@H]2[C@@H](c3ccccc31)[C@H](CO)N2CC1CCOCC1 | > 10 µM (inactive)
67 | Cc1noc(C)c1NC(=O)N(C)C[C@@H]1OCc2cnnn2CCCC(=O)N([C@H](C)CO)C[C@H]1C | > 10 µM (inactive)
68 | Cc1noc(C)c1NC(=O)N(C)C[C@H]1OCc2cn(nn2)CCCC(=O)N([C@@H](C)CO)C[C@H]1C | > 10 µM (inactive)
69 | COc1ccc(C(=O)N2C[C@H]3[C@@H](c4ccccc42)[C@H](CO)N3Cc2ccccc2Cl)cc1 | > 10 µM (inactive)
70 | CCCNC(=O)N1[C@H](CO)[C@@H]2c3ccccc3N(C(=O)Nc3cccc(Cl)c3)C[C@@H]21 | > 10 µM (inactive)
71 | CCC(=O)N(C)C[C@@H]1[C@@H](c2ccccc2)[C@H](CO)N1Cc1cccnc1 | > 10 µM (inactive)
72 | CC(=O)NC[C@H]1[C@@H](c2ccc(-c3cccnc3)cc2)[C@@H](CO)N1C(=O)CC1CC1 | > 10 µM (inactive)
73 | CCC(=O)N1[C@H](CO)[C@H](c2ccc(-c3cccc(OC)c3)cc2)[C@H]1CNC(C)=O | > 10 µM (inactive)
74 | Cc1cccc(S(=O)(=O)N2C[C@H]3[C@@H](c4ccccc42)[C@H](CO)N3C(=O)c2ccccc2)c1 | > 10 µM (inactive)
75 | C[C@@H]1CN([C@H](C)CO)C(=O)CCCn2nncc2CO[C@H]1CN(C)CC1CCCCC1 | > 10 µM (inactive)
76 | CCC(=O)N1C[C@H]2[C@@H](c3ccccc31)[C@H](CO)N2Cc1ccc(F)cc1 | > 10 µM (inactive)
77 | O=C(c1ccccn1)N1C[C@H]2[C@@H](c3ccccc31)[C@@H](CO)N2C(=O)C1CCCCC1 | > 10 µM (inactive)
